The text below walks through data of patent US6013768A, “Kainate-binding human CNS receptors of the EAA1 family” (priority 1997, dated 2000).

This assay addresses T1, human EAA1a receptor (Homo sapiens, UniProt Q16099).
T1 construct: expressed in transfected cells; host or cells: COS-1 (ATCC CRL 1650), transient expression, plasmid pcDNA1/humEAA1a
T1 sequence (Q16099 21-956): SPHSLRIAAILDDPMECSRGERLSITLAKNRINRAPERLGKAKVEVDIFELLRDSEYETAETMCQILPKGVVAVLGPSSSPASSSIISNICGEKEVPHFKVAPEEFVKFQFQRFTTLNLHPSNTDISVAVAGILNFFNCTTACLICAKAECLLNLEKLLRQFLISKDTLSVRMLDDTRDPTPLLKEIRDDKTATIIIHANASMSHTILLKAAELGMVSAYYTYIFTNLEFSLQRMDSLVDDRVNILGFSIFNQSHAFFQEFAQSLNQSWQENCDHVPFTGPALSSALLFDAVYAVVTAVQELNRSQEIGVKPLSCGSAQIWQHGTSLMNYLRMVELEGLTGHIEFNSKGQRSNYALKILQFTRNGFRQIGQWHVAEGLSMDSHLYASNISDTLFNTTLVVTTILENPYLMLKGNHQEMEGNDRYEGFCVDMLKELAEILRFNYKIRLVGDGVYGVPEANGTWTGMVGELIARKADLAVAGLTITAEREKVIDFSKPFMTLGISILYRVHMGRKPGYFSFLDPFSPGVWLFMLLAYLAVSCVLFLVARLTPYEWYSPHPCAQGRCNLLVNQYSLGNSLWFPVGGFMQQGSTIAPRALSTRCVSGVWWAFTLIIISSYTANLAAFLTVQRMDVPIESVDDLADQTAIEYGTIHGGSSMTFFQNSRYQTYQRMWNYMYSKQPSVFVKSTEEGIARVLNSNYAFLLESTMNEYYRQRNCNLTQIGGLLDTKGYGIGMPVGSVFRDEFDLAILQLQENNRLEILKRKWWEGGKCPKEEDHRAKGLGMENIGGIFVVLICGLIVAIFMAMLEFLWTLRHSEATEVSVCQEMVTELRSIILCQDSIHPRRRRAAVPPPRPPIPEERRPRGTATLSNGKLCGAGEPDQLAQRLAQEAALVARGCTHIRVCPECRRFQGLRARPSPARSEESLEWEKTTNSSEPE
As to the kind of experiment: kainate binding assay, membranes of EAA1a-producing COS cells.

Procedure: Transfected cells in the frozen state were resuspended in ice-cold distilled water using a hand homogenizer and centrifuged for 20 minutes at 50,000 g. The supernatant was discarded and the membrane pellet stored frozen at -70° C.
COS cell membrane pellets were suspended in ice cold 50 mM Tris-HCl (pH 7.55, 5° C.) and placed inside Spectrapor 7 (EDTA-treated, sulfur-free) dialysis tubing. The suspension was placed in 4 liters of ice cold 50 mM Tris-HCl (pH 7.55, 5° C.) and dialyzed for 16-24 hours at 5° C. in order to remove endogenous glutamate that would compete for binding. The tissue suspension was recovered from the tubing along with a small volume of buffer used to rinse the tubing. This resultant membrane preparation was used as tissue source for binding experiments described below.
Binding assays were then performed, using an amount of COS-derived membrane equivalent to from 25-100 μg as judged by protein determination and selected radiolabelled ligand.
For kainate binding assays, incubation mixtures consisted of 25-100 μg tissue protein and [vinylidene-^3 H] kainic acid (58 Ci/mmole, 5 nM final) in the cold incubation buffer, 1 ml final volume. Non-specific binding was in the presence of 1 mM L-glutamate. […] Filters were washed twice in 6 ml of the cold incubation buffer, then placed in scintillation vials with 5 ml of Beckman Ready-Safe scintillation cocktail for counting.

Regarding `C=C(C)[C@H]1CN[C@H](C(=O)O)[C@H]1CC(=O)O` [kainate], the kainate binding affinity result (EAA1a-producing COS cell membranes, high affinity category i.e. nanomolar range) is on record as “high affinity”. Also, under “[3H]-kainate 5 nM labelled ligand, COS cell membranes, non-specific binding with 1 mM L-glutamate, FIG. 5”, the “specific binding of labelled kainate” value was “specific [^3 H]-kainate binding”.
